Data published in the NIST ThermoML archive (doi:10.1016/j.jct.2013.04.014).
Numbers after ± are expanded uncertainties.

Key:
[1] = 298.2 K; for surface tension liquid-gas: Pendant drop shape; for mass density: 101.33 kPa, Liquid, Vibrating tube method
[2] = xn = mol fraction of the nth substance listed; conditions: 298.2 K; for surface tension liquid-gas: Pendant drop shape; for mass density: 101.33 kPa, Liquid, Vibrating tube method

CCCC[n+]1ccn(C)c1.O=S(=O)([N-]S(=O)(=O)C(F)(F)F)C(F)(F)F
surface tension liquid-gas [1]: 33.15 ± 1.1 mN/m
mass density [1]: 1436.9 ± 2.1 kg/m3

CCCCn1cc[n+](C)c1C.O=S(=O)([N-]S(=O)(=O)C(F)(F)F)C(F)(F)F
surface tension liquid-gas [1]: 34.5 ± 1.1 mN/m
mass density [1]: 1421.2 ± 2.1 kg/m3

CCC[N+]1(C)CCCC1.O=S(=O)([N-]S(=O)(=O)C(F)(F)F)C(F)(F)F
surface tension liquid-gas [1]: 35.35 ± 1.1 mN/m
mass density [1]: 1431.7 ± 2.1 kg/m3

CCC[N+]1(C)CCCCC1.O=S(=O)([N-]S(=O)(=O)C(F)(F)F)C(F)(F)F
surface tension liquid-gas [1]: 35.17 ± 1.1 mN/m
mass density [1]: 1411.4 ± 2.1 kg/m3

CCC[n+]1cccc(C)c1.O=S(=O)([N-]S(=O)(=O)C(F)(F)F)C(F)(F)F
surface tension liquid-gas [1]: 35.02 ± 1.1 mN/m
mass density [1]: 1449.7 ± 2.1 kg/m3

CCCCn1cc[n+](C)c1C.O=S(=O)([N-]S(=O)(=O)C(F)(F)F)C(F)(F)F + CCCC[n+]1ccn(C)c1.O=S(=O)([N-]S(=O)(=O)C(F)(F)F)C(F)(F)F
surface tension liquid-gas ([2]; x1 = 0.2193): 33.38 ± 1.1 mN/m
surface tension liquid-gas ([2]; x1 = 0.3981): 33.59 ± 1.1 mN/m
surface tension liquid-gas ([2]; x1 = 0.4962): 33.72 ± 1.1 mN/m
surface tension liquid-gas ([2]; x1 = 0.5995): 33.87 ± 1.1 mN/m
surface tension liquid-gas ([2]; x1 = 0.7896): 34.16 ± 1.1 mN/m
surface tension liquid-gas ([2]; x1 = 1): 34.5 ± 1.1 mN/m
mass density ([2]; x1 = 0.2193): 1433.8 ± 2.1 kg/m3
mass density ([2]; x1 = 0.3981): 1431.2 ± 2.1 kg/m3
mass density ([2]; x1 = 0.4962): 1429.6 ± 2.1 kg/m3
mass density ([2]; x1 = 0.5995): 1428 ± 2.1 kg/m3
mass density ([2]; x1 = 0.7896): 1424.9 ± 2.1 kg/m3
mass density ([2]; x1 = 1): 1421.2 ± 2.1 kg/m3

CCC[N+]1(C)CCCC1.O=S(=O)([N-]S(=O)(=O)C(F)(F)F)C(F)(F)F + CCCC[n+]1ccn(C)c1.O=S(=O)([N-]S(=O)(=O)C(F)(F)F)C(F)(F)F
surface tension liquid-gas ([2]; x1 = 0.2094): 33.63 ± 1.1 mN/m
surface tension liquid-gas ([2]; x1 = 0.3935): 34.04 ± 1.1 mN/m
surface tension liquid-gas ([2]; x1 = 0.5004): 34.27 ± 1.1 mN/m
surface tension liquid-gas ([2]; x1 = 0.5943): 34.48 ± 1.1 mN/m
surface tension liquid-gas ([2]; x1 = 0.7854): 34.89 ± 1.1 mN/m
surface tension liquid-gas ([2]; x1 = 1): 35.35 ± 1.1 mN/m
mass density ([2]; x1 = 0.2094): 1436.9 ± 2.1 kg/m3
mass density ([2]; x1 = 0.3935): 1436.4 ± 2.1 kg/m3
mass density ([2]; x1 = 0.5004): 1435.9 ± 2.1 kg/m3
mass density ([2]; x1 = 0.5943): 1435.4 ± 2.1 kg/m3
mass density ([2]; x1 = 0.7854): 1433.9 ± 2.1 kg/m3
mass density ([2]; x1 = 1): 1431.7 ± 2.1 kg/m3

CCC[N+]1(C)CCCCC1.O=S(=O)([N-]S(=O)(=O)C(F)(F)F)C(F)(F)F + CCCC[n+]1ccn(C)c1.O=S(=O)([N-]S(=O)(=O)C(F)(F)F)C(F)(F)F
surface tension liquid-gas ([2]; x1 = 0.2156): 33.53 ± 1.1 mN/m
surface tension liquid-gas ([2]; x1 = 0.4069): 33.9 ± 1.1 mN/m
surface tension liquid-gas ([2]; x1 = 0.4988): 34.08 ± 1.1 mN/m
surface tension liquid-gas ([2]; x1 = 0.5955): 34.28 ± 1.1 mN/m
surface tension liquid-gas ([2]; x1 = 0.7958): 34.71 ± 1.1 mN/m
surface tension liquid-gas ([2]; x1 = 1): 35.17 ± 1.1 mN/m
mass density ([2]; x1 = 0.2156): 1432.9 ± 2.1 kg/m3
mass density ([2]; x1 = 0.4069): 1428.5 ± 2.1 kg/m3
mass density ([2]; x1 = 0.4988): 1426.2 ± 2.1 kg/m3
mass density ([2]; x1 = 0.5955): 1423.7 ± 2.1 kg/m3
mass density ([2]; x1 = 0.7958): 1417.9 ± 2.1 kg/m3
mass density ([2]; x1 = 1): 1411.4 ± 2.1 kg/m3

CCC[n+]1cccc(C)c1.O=S(=O)([N-]S(=O)(=O)C(F)(F)F)C(F)(F)F + CCCC[n+]1ccn(C)c1.O=S(=O)([N-]S(=O)(=O)C(F)(F)F)C(F)(F)F
surface tension liquid-gas ([2]; x1 = 0.2093): 33.42 ± 1.1 mN/m
surface tension liquid-gas ([2]; x1 = 0.3996): 33.73 ± 1.1 mN/m
surface tension liquid-gas ([2]; x1 = 0.4995): 33.91 ± 1.1 mN/m
surface tension liquid-gas ([2]; x1 = 0.6047): 34.12 ± 1.1 mN/m
surface tension liquid-gas ([2]; x1 = 0.8024): 34.55 ± 1.1 mN/m
surface tension liquid-gas ([2]; x1 = 1): 35.02 ± 1.1 mN/m
mass density ([2]; x1 = 0.2093): 1440.2 ± 2.1 kg/m3
mass density ([2]; x1 = 0.3996): 1442.9 ± 2.1 kg/m3
mass density ([2]; x1 = 0.4995): 1444.2 ± 2.1 kg/m3
mass density ([2]; x1 = 0.6047): 1445.5 ± 2.1 kg/m3
mass density ([2]; x1 = 0.8024): 1447.7 ± 2.1 kg/m3
mass density ([2]; x1 = 1): 1449.7 ± 2.1 kg/m3

CCCC[n+]1ccn(C)c1.O=S(=O)([N-]S(=O)(=O)C(F)(F)F)C(F)(F)F + CCCCn1cc[n+](C)c1C.O=S(=O)([N-]S(=O)(=O)C(F)(F)F)C(F)(F)F
surface tension liquid-gas ([2]; x2 = 0): 33.15 ± 1.1 mN/m
mass density ([2]; x2 = 0): 1436.9 ± 2.1 kg/m3

CCCC[n+]1ccn(C)c1.O=S(=O)([N-]S(=O)(=O)C(F)(F)F)C(F)(F)F + CCC[N+]1(C)CCCC1.O=S(=O)([N-]S(=O)(=O)C(F)(F)F)C(F)(F)F
surface tension liquid-gas ([2]; x2 = 0): 33.15 ± 1.1 mN/m
mass density ([2]; x2 = 0): 1436.9 ± 2.1 kg/m3

CCCC[n+]1ccn(C)c1.O=S(=O)([N-]S(=O)(=O)C(F)(F)F)C(F)(F)F + CCC[N+]1(C)CCCCC1.O=S(=O)([N-]S(=O)(=O)C(F)(F)F)C(F)(F)F
surface tension liquid-gas ([2]; x2 = 0): 33.15 ± 1.1 mN/m
mass density ([2]; x2 = 0): 1436.9 ± 2.1 kg/m3

CCCC[n+]1ccn(C)c1.O=S(=O)([N-]S(=O)(=O)C(F)(F)F)C(F)(F)F + CCC[n+]1cccc(C)c1.O=S(=O)([N-]S(=O)(=O)C(F)(F)F)C(F)(F)F
surface tension liquid-gas ([2]; x2 = 0): 33.15 ± 1.1 mN/m
mass density ([2]; x2 = 0): 1436.9 ± 2.1 kg/m3
